# Results published in patent publication US20240368566A1, “PYK2-DERIVED PEPTIDES FOR INHIBITING INVADOPODIA-MEDIATED CANCER METASTASIS” (BAR-ILAN UNIVERSITY, priority 2023, published 2024).
# Entries after “also recorded” stand apart in the source; their conditions may differ.
# Columns and labels:
# cortactin tyrosine Y421 = assay: Immunofluorescence analysis of cortactin tyrosine phosphorylation at invadopodium precursors; type: cell-based, human; conditions: EGF stimulation 3 min; all concentrations (0.1, 1, 5 μM)
# Procedure: Twenty-four hours before each experiment, cells were plated on fibronectin/gelatin unlabeled matrix in the presence of a Pyk2-PRR or control peptides at 0.1, 1, and 5 μM concentration and allowed to attach for eight hours. Cells were then starved in DMEM/0.5% FBS for 16 h in the presence of peptides and stimulated with 2.5 nM EGF for 3 min or left un-stimulated (0 min EGF). Cells were fixed and stained with mouse phospho-specific cortactin antibody (pY421). To image invadopodia Z-plane, focus was on the ventral surface of the cell where the leading edge containing cortactin is focused. The pixels corresponding to invadopodia dots were then analyzed, not the whole cell. The intensity (mean grey value (mgv) minus background) of cortactin-TagRFP and pY421-cortactin at invadopodium precursors was quantified. The pY421-cortactin/cortactin-TagRFP ratio was calculated as a measure of tyrosine-phosphorylated cortactin at cortactin-rich puncta. Data were normalized to resting cells (0 min EGF) and presented as the relative fold change in cortactin tyrosine phosphorylation.
# MDA-MB-231 cells [1] = assay: ECM degradation assay; type: cell-based, human; conditions: 24 h on fluorescent fibronectin/gelatin matrix; compared to control peptide
# Procedure: The in vitro matrix degradation assay was performed as described in Genna et al., 2018 (supra). Briefly, MatTek dishes were treated with 2.5% gelatin/2.5% sucrose, cross-linked with 0.5% glutaraldehyde, treated with 10 μg/ml of fluorescently labeled fibronectin (Alexa 568; Invitrogen, Thermo Fischer Scientific), and then with 1 mg/ml NaBH4 in PBS. 125,000 cells were plated on the fibronectin/gelatin matrix in Pyk2-PRR or control peptides and allowed to degrade for 24 h. Cells were then fixed in 3.7% paraformaldehyde, and random fields were imaged using an inverted fluorescent microscope (Leica AF6000; 40×, NA 1.3, oil objective). ECM degradation was analyzed by quantifying the average degraded area in pixels per field using ImageJ.
# 4T1 cells = assay: Spontaneous lung metastasis clonogenic assay in 4T1 xenograft mouse model; type: in vivo, BALB/c female mice; conditions: 10 mg/kg once a day for eight days, intraperitoneal injection, HIV-TAT fused peptide; versus scrambled control
# Procedure: All experimental procedures were conducted following the Federation of Laboratory Animal Science Association (FELSA) and were approved by the Bar-Ilan University animal use and care committee. Mouse xenograft tumors were generated by injecting 10^6 4T1 cells resuspended in 20% collagen I (BD Biosciences, Franklin Lakes, NJ, USA) in PBS into the lower-left mammary gland of 8-week-old BALB/c female mice. […] 4T1 cells have intrinsic resistance to 6-thioguanine, which enables precise quantification of metastatic cells, even when they are disseminated at sub-microscopic levels at distant organs, upon excision and digestion of selected organs. The clonogenic assay is based on a principle by which one colony represents one metastatic cell. Briefly, spontaneous lung metastasis was measured in BALB/c mice bearing orthotopic 4T1 tumors of equal size (1-1.2 cm in diameter). Lungs were excised and minced and plated in RPMI/10% FBS in the presence of 6-thioguanine to select for tumor cells only. Cells were plated in a 5% CO2 incubator at 37° C. for 14 days to form 4T1 colonies. On day 14 after plating, the medium was removed from dishes, and colonies were fixed in 4% paraformaldehyde for one hour at room temperature. Colonies were then stained in 2% crystal violet solution and thoroughly washed with PBS. Plates were allowed to air dry, and colonies in each plate were quantified. […]
# MDA-MB-231 cells [2] = assay: 2D single-cell random migration assay; type: cell-based, human; conditions: all concentrations; 12 hours; compared to control peptide; data not shown
# Procedure: The 2D single-cell random migration assay was performed as previously described in Genna et al. Pyk2 and FAK differentially regulate invadopodia formation and function in breast cancer cells. J Cell Biol 2018; 217: 375-395. In brief, 6-well microtiter plates were coated with 10 μg/ml fibronectin and blocked with 1% denatured BSA. Peptide pre-treated cells were plated at 20,000 cells/well in DMEM/10% FBS containing peptides and allowed to adhere for 12-16 h. Plates were placed in a 37° C. heated chamber, and images were collected using the IncuCyte® Zoom platform (Essen Bioscience, Ann Arbor, MI, USA; 20×, NA 0.60, air objective). Phase images were collected every one hour for a total of 12 h using the IncuCyte® acquisition software. Trajectory plots, accumulated distance (total cell path length), Euclidean distance (the shortest distance between the starting point and endpoint of migration), and velocity were calculated using the chemotaxis and migration tool (ibidi GMBH, Grafelfing, Germany).
# MDA-MB-231 cells [3] = assay: Invadopodium precursor formation assay; type: cell-based, human; conditions: 4 h, 0.1, 1 or 5 μM peptide
# Procedure: The invadopodium precursor formation assay was performed as described in Genna et al., 2018 (supra). Briefly, gelatin was conjugated to Alexa 405 dye (Thermo Fisher Scientific). MatTek dishes were treated with 1 N HCl and coated with 50 μg/ml poly-L-lysine. A 0.2% gelatin solution was prepared in PBS, and a 1:20 mixture of Alexa 405-labeled gelatin/unlabeled gelatin was warmed to 37° C. before addition to the poly-L-lysine coated plates. Gelatin was cross-linked with 0.01% glutaraldehyde followed by quenching with 5 mg/ml sodium borohydride. 125,000 MDA-MB-231 cells were plated on Alexa 405-labeled gelatin plates in the presence of 0.1, 1, or 5 μM of Pyk2-PRR peptides or scrambled control for 4 h. At the end of incubation, cells were fixed in 3.7% paraformaldehyde, permeabilized with 0.1% Triton X-100, blocked with 1% FBS, 1% BSA in PBS, and labeled with anti-Tks5 and anti-cortactin. Images were acquired using an inverted fluorescent microscope (Leica AF6000; 63×, NA 1.4, oil objective, Leica LAS AF acquisition software) (Wetzlar, Germany) equipped with an ORCA-Flash 4.0 V2 digital CMOS camera (Hamamatsu Photonics, Shizuoka, Japan).
structure (smiles),measurement,setting,value
"C[C@H](NC(=O)[C@@H](N)[C@@H](C)O)C(=O)N[C@@H](Cc1ccccc1)C(=O)N[C@@H](CCC(N)=O)C(=O)N[C@@H](CCC(=O)O)C(=O)N1CCC[C@H]1C(=O)N1CCC[C@H]1C(=O)N1CCC[C@H]1C(=O)N[C@@H](CCCCN)C(=O)N1CCC[C@H]1C(=O)N[C@@H](CO)C(=O)N[C@@H](CCCNC(=N)N)C(=O)N1CCC[C@H]1C(=O)N[C@@H](CCCCN)C(=O)N[C@@H](Cc1ccc(O)cc1)C(=O)N[C@@H](CCCNC(=N)N)C(=O)N1CCC[C@H]1C(=O)N1CCC[C@H]1C(=O)N1CCC[C@H]1C(=O)O [Pyk2-PRR2, TAFQEPPPKPSRPKYRPPP]",cortactin Y421 phosphorylation,cortactin tyrosine Y421,completely abolished
same,matrix degradation (degradation area),MDA-MB-231 cells [1],significant decrease
same,lung metastases (6-thioguanine-resistant colonies),4T1 cells,significantly fewer lung metastases; also recorded: can suppress in vivo breast tumor metastasis; also recorded: significantly inhibited lung metastasis
same,"2D motility (accumulated and Euclidean distances, velocity)",MDA-MB-231 cells [2],reduced 2D motility
same,"mature, matrix-degrading invadopodia",MDA-MB-231 cells [3]; co-localization with degradation regions,significant decrease
same,immature invadopodium precursors,MDA-MB-231 cells [3]; cortactin and Tks5 co-localization,significant increase
